Test results: patent publication US10323022B2, “Pyrrolidinyl urea, pyrrolidinyl thiourea and pyrrolidinyl guanidine compounds as TrkA kinase inhibitors” (Array BioPharma Inc., priority 2011, dated 2019)
Counter-ions that a name gives are not always drawn.

target: TrkA (Homo sapiens (Human), UniProt P04629); experiment: TrkA Omnia Assay; format: biochemical; settings: averaged IC50; 20 nM enzyme, 500 μM ATP, 10 μM peptide substrate
Summary of the method: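 Recombinant TrkA (20 nM) preincubated 10 min at ambient temperature with compound, then Omnia Tyr Peptide #4 (10 μM) and ATP (500 μM) added in 25 mM MOPS pH 7.5, 5 mM MgCl2, 0.005% Triton X-100. Fluorescence (ex 360/em 485 nm) followed continuously for 70 min; IC50 from initial rates by 4- or 5-parameter logistic fit.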

Chain of TrkA (P04629 33-796): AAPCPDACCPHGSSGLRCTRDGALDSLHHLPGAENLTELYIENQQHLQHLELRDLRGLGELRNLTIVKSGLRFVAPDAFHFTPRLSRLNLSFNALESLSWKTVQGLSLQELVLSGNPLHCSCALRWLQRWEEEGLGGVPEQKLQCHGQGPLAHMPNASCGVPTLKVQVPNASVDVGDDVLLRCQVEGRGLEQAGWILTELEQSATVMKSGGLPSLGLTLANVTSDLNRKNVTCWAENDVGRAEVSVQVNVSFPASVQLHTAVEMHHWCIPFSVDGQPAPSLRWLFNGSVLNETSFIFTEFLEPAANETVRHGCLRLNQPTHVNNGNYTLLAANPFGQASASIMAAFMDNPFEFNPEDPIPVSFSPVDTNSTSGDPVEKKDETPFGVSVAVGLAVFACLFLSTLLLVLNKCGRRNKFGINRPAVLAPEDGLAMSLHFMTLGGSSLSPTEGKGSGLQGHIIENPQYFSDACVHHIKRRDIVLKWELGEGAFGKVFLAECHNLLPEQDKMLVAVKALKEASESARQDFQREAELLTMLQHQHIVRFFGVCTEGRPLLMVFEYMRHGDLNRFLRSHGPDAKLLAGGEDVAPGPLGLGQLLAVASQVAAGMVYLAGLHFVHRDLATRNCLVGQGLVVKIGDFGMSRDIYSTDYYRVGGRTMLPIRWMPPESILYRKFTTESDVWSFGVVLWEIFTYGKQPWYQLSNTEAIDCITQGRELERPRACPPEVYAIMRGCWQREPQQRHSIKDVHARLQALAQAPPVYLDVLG

Row | SMILES | IC50 [nM]
1 | COCCN1C[C@@H](NC(=O)Nc2c(C)c(-c3ccc(N)nc3)nn2-c2ccccc2)[C@H](c2ccc(F)c(F)c2)C1 [Example 515, 1-(3-(6-aminopyridin-3-yl)-4-methyl-1-phenyl-1H-pyrazol-5-yl)-3-((3S,4R)-4-(3,4-difluorophenyl)-1-(2-methoxyethyl)pyrrolidin-3-yl)urea] | < 100
2 | COCCN1C[C@@H](NC(=O)Nc2c(C)c(Br)nn2-c2ccccc2)[C@H](c2ccc(F)cc2)C1 [Example 516, 1-(3-bromo-4-methyl-1-phenyl-1H-pyrazol-5-yl)-3-((3S,4R)-4-(4-fluorophenyl)-1-(2-methoxyethyl)pyrrolidin-3-yl)urea] | < 100
3 | COCCN1C[C@@H](NC(=O)Nc2c(C)c(-c3ccc(=O)n(CC(F)(F)F)c3)nn2-c2ccccc2)[C@H](c2ccc(F)c(F)c2)C1 [Example 517, 1-((3S,4R)-4-(3,4-difluorophenyl)-1-(2-methoxyethyl)pyrrolidin-3-yl)-3-(4-methyl-3-(6-oxo-1-(2,2,2-trifluoroethyl)-1,6-dihydropyridin-3-yl)-1-phenyl-1H-pyrazol-5-yl)urea] | < 100
4 | COCCN1C[C@@H](NC(=O)Nc2c(C)c(-c3cnn(C(C)C)c3)nn2-c2ccccc2)[C@H](c2ccc(F)cc2)C1 [Example 518, 1-((3S,4R)-4-(4-fluorophenyl)-1-(2-methoxyethyl)pyrrolidin-3-yl)-3-(1′-isopropyl-4-methyl-1-phenyl-1H, 1′H-[3,4′-bipyrazol]-5-yl)urea] | < 100
5 | COCCN1C[C@@H](NC(=O)Nc2c(C)c(-c3ccc(=O)n(C)c3)nn2-c2ccccc2)[C@H](c2ccc(F)cc2)C1 [Example 519, 1-((3S,4R)-4-(4-fluorophenyl)-1-(2-methoxyethyl)pyrrolidin-3-yl)-3-(4-methyl-3-(1-methyl-6-oxo-1,6-dihydropyridin-3-yl)-1-phenyl-1H-pyrazol-5-yl)urea] | < 100
6 | Cc1c(Br)nn(-c2ccccc2)c1NC(=O)N[C@H]1CN(CC(F)(F)F)C[C@@H]1c1ccccc1 [Example 520, 1-(3-bromo-4-methyl-1-phenyl-1H-pyrazol-5-yl)-3-((3R,4S)-4-phenyl-1-(2,2,2-trifluoroethyl)pyrrolidin-3-yl)urea] | < 100
7 | Cc1c(-c2cnc(N)nc2)nn(-c2ccccc2)c1NC(=O)N[C@H]1CN(CC(F)(F)F)C[C@@H]1c1ccccc1 [Example 522, 1-(3-(2-aminopyrimidin-5-yl)-4-methyl-1-phenyl-1H-pyrazol-5-yl)-3-((3R,4S)-4-phenyl-1-(2,2,2-trifluoroethyl)pyrrolidin-3-yl)urea bis(2,2,2-trifluoroacetate)] | < 100
8 | CCn1cc(-c2nn(-c3ccccc3)c(NC(=O)N[C@@H]3CN(CCOC)C[C@H]3c3ccc(F)c(F)c3)c2C)cn1 [Example 523, 1-((3S,4R)-4-(3,4-difluorophenyl)-1-(2-methoxyethyl)pyrrolidin-3-yl)-3-(1′-ethyl-4-methyl-1-phenyl-1H, 1′H-[3,4′-bipyrazol]-5-yl)urea] | < 100
9 | CCn1cc(-c2nn(-c3ccccc3)c(NC(=O)N[C@@H]3CN(CCOC)C[C@H]3c3ccc(F)cc3)c2C)cn1 [Example 524, 1-(1′-ethyl-4-methyl-1-phenyl-1H, 1′H-[3,4′-bipyrazol]-5-yl)-3-((3S,4R)-4-(4-fluorophenyl)-1-(2-methoxyethyl)pyrrolidin-3-yl)urea] | < 100
10 | COCCN1C[C@@H](NC(=O)Nc2c(C)c(OS(=O)(=O)C(F)(F)F)nn2-c2ccccc2)[C@H](c2ccc(F)c(F)c2)C1 [Example 525, 5-(3-((3S,4R)-4-(3,4-difluorophenyl)-1-(2-methoxyethyl)pyrrolidin-3-yl)ureido)-4-methyl-1-phenyl-1H-pyrazol-3-yl trifluoromethanesulfonate] | < 100
11 | COCCN1C[C@@H](NC(=O)Nc2c(C)c(-c3cnc(OC)nc3)nn2-c2ccccc2)[C@H](c2ccc(F)c(F)c2)C1 [Example 526, 1-((3S,4R)-4-(3,4-difluorophenyvl)-1-(2-methoxyethyl)pyrrolidin-3-yl)-3-(3-(2-methoxypyrimidin-5-yl)-4-methyl-1-phenyl-1H-pyrazol-5-yl)urea] | < 100
12 | COCCN1C[C@@H](NC(=O)Nc2c(C)c(-c3cnc(N(C)C)nc3)nn2-c2ccccc2)[C@H](c2ccc(F)c(F)c2)C1 [Example 527, 1-((3S,4R)-4-(3,4-difluorophenyl)-1-(2-methoxyethyl)pyrrolidin-3-yl)-3-(3-(2-(dimethylamino)pyrimidin-5-yl)-4-methyl-l-phenyl-1H-pyrazol-5-yl)urea] | < 100
13 | COCCN1C[C@@H](NC(=O)Nc2c(C)c(-c3cnc(OC)nc3)nn2-c2ccccc2)[C@H](c2ccc(F)cc2)C1 [Example 528, 1-((3S,4R)-4-(4-fluorophenyl)-1-(2-methoxyethyl)pyrrolidin-3-yl)-3-(3-(2-methoxypyrimidin-5-yl)-4-methyl-1-phenyl-1H-pyrazol-5-yl)urea] | < 100
14 | COCCN1C[C@@H](NC(=O)Nc2c(C)c(-c3cnc(N(C)C)nc3)nn2-c2ccccc2)[C@H](c2ccc(F)cc2)C1 [Example 529, 1-(3-(2-(dimethylamino)pyrimidin-5-yl)-4-methyl-1-phenyl-1H-pyrazol-5-yl)-3-((3S,4R)-4-(4-fluorophenyl)-1-(2-methoxyethyl)pyrrolidin-3-yl)urea] | < 100
15 | CCn1cc(-c2nn(-c3ccccc3)c(NC(=O)N[C@@H]3CN(CCOC)C[C@H]3c3cccc(F)c3)c2C)cn1 [Example 530, 1-(1′-ethyl-4-methyl-1-phenyl-1H,1′H-[3,4′-bipyrazol]-5-yl)-3-((3S,4R)-4-(3-fluorophenyl)-1-(2-methoxyethyl)pyrrolidin-3-yl)urea] | < 100
16 | COCCN1C[C@@H](NC(=O)Nc2c(C)c(-c3ccn(C)c(=O)c3)nn2-c2ccccc2)[C@H](c2cccc(F)c2)C1 [Example 531, 1-((3S,4R)-4-(3-fluorophenyl)-1-(2-methoxyethyl)pyrrolidin-3-yl)-3-(4-methyl-3-(1-methyl-2-oxo-1,2-dihydropyridin-4-yl)-1-phenyl-1H-pyrazol-5-yl)urea] | < 100
17 | COCCN1C[C@@H](NC(=O)Nc2c(C)c(-c3ccn(C)c(=O)c3)nn2-c2ccccc2)[C@H](c2ccc(F)cc2)C1 [Example 532, 1-((3S,4R)-4-(4-fluorophenyl)-1-(2-methoxyethyl)pyrrolidin-3-yl)-3-(4-methyl-3-(1-methyl-2-oxo-1,2-dihydropyridin-4-yl)-1-phenyl-1H-pyrazol-5-yl)urea] | < 100
18 | COCCN1C[C@@H](NC(=O)Nc2c(C)c(C3CC3)nn2-c2ccccc2)[C@H](c2ccc(F)c(F)c2)C1 [Example 533, 1-(3-cyclopropyl-4-methyl-1-phenyl-1H-pyrazol-5-yl)-3-((3S,4R)-4-(3,4-difluorophenyl)-1-(2-methoxyethyl)pyrrolidin-3-yl)urea] | < 100
19 | COCCN1C[C@@H](NC(=O)Nc2c(C)c(C3CC3)nn2-c2ccccc2)[C@H](c2ccc(F)cc2)C1 [Example 534, 1-(3-cyclopropyl-4-methyl-1-phenyl-1H-pyrazol-5-yl)-3-((3S,4R)-4-(4-fluorophenyl)-1-(2-methoxyethyl)pyrrolidin-3-yl)urea] | < 100
20 | COCCN1C[C@@H](NC(=O)Nc2c(C)c(-c3ccc(=O)n(C(C)C)c3)nn2-c2ccccc2)[C@H](c2ccc(F)c(F)c2)C1 [Example 535, 1-((3S,4R)-4-(3,4-difluorophenyl)-1-(2-methoxyethyl)pyrrolidin-3-yl)-3-(3-(1-isopropyl-6-oxo-1,6-dihydropyridin-3-yl)-4-methyl-1-phenyl-1H-pyrazol-5-yl)urea] | < 100
21 | COCCN1C[C@@H](NC(=O)Nc2c(C)c(-c3ccc(=O)n(C(C)C)c3)nn2-c2ccccc2)[C@H](c2ccc(F)cc2)C1 [Example 536, 1-((3S,4R)-4-(4-fluorophenyl)-1-(2-methoxyethyl)pyrrolidin-3-yl)-3-(3-(1-isopropyl-6-oxo-1,6-dihydropyridin-3-yl)-4-methyl-1-phenyl-1H-pyrazol-5-yl)urea] | < 100
22 | COCCN1C[C@@H](NC(=O)Nc2c(C)c(OC[C@H](C)O)nn2-c2ccccc2)[C@H](c2cc(F)cc(F)c2)C1 [Example 537, 1-((3S,4R)-4-(3,5-difluorophenyl)-1-(2-methoxyethyl)pyrrolidin-3-yl)-3-(3-((S)-2-hydroxypropoxy)-4-methyl-1-phenyl-1H-pyrazol-5-yl)urea dihydrochloride] | < 100
23 | COCCN1C[C@@H](NC(=O)Nc2c(C)c(OCCN3CCNCC3)nn2-c2ccccc2)[C@H](c2ccc(F)c(F)c2)C1 [Example 538, 1-((3S,4R)-4-(3,5-difluorophenyvl)-1-(2-methoxyethyl)pyrrolidin-3-yl)-3-(4-methyl-1-phenyl-3-(2-(piperazin-1-yl)ethoxy)-1H-pyrazol-5-yl)urea trihydrochloride] | < 100
24 | COCCN1C[C@@H](NC(=O)Nc2c(Cl)c(OCc3ccccc3)nn2C)[C@H](c2ccc(F)c(F)c2)C1 [Example 539, 1-(3-(benzyloxy)-4-chloro-1-methyl-1H-pyrazol-5-yl)-3-((3S,4R)-4-(3,4-difluorophenyl)-1-(2-methoxyethyl)pyrrolidin-3-yl)urea] | 100 to 1000
25 | COCCN1C[C@@H](NC(=O)Nc2c(C)c(OCC(=O)O)nn2-c2ccccc2)[C@H](c2ccc(F)c(F)c2)C1 [Example 540, 2-((5-(3-((3S,4R)-4-(3,4-difluorophenyl)-1-(2-methoxyethyl)pyrrolidin-3-yl)ureido)-4-methyl-1-phenyl-1H-pyrazol-3-yl)oxy)acetic acid] | < 100
26 | CCNC(=O)COc1nn(-c2ccccc2)c(NC(=O)N[C@@H]2CN(CCOC)C[C@H]2c2ccc(F)c(F)c2)c1C [Example 541, 2-((5-(3-((3S,4R)-4-(3,4-difluorophenyl)-1-(2-methoxyethyl)pyrrolidin-3-yl)ureido)-4-methyl-1-phenyl-1H-pyrazol-3-yl)oxy)-N-ethylacetamide] | < 100
